Measured values published in US20030073629A1, “Omi and domains thereof that disrupt IAP-caspase interaction” (priority 2001, published 2003).
Where a SMILES comes first, the peptide text is derived from it. The star is where a group is joined. Cbz = O=C(OCc1ccccc1)*; CH2F = FC*

What was measured:
[1] = biological target: T1, XIAP-BIR3 (Homo sapiens, UniProt P98170); test: GST-BIR3 precipitation of extracts of transfected 293T cells; assay type: binding; conditions: 24 hours after transfection
T1 construct: Omi associates directly with the BIR3 domain of XIAP
T1 sequence (P98170 238-358 limits assumed): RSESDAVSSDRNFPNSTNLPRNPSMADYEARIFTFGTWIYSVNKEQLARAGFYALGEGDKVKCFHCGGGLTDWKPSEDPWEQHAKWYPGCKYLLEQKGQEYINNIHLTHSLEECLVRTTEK
Experimental: FIG. 24 is a scanned image of an immunoblot with Flag-HRP antibody of 293T cells extracts precipitated with GST-BIR3 24 hours after transfection with the indicated expression constructs extracts.
(§1) Next, the contribution of the IAP binding activity of Omi to its proapoptotic activity was tested. The MTS of Omi was replaced with a GFP-IETD sequence and mutated at its active site Ser306 to Ala (FIG. 20, GFP-IETD-AVP). Of note, the presence of the IETD sequence between GFP and Omi-S/A allowed caspase-dependent cleavage at the IETD site after the Asp residue and release of mature Omi-S/A in the cytosol of the transfected 293 and MCF-7 cells (FIG. 23). […] Taken together, Omi not only can induce apoptosis through its serine protease activity but also via its ability to bind and neutralize IAPs.

[2] = test system: 293 and MCF-7 cells; test: Caspase-dependent processing of GFP-IETD-Omi at the IETD site in transfected cells (immunoblot); assay type: cell-based; conditions: cytosolic extracts, zVAD-FMK 20 μM
Experimental: FIG. 23 is a scanned image of an immunoblot with Flag-HRP antibody of MCF-7 and 293T cells 24 hours following transfected with pEGFP or M-Omi-Flag, GFP-IETD-AVP (AVP) or GFP-IETD-SSA (SSA) expression constructs in the presence or absence of zVAD-FMK (20μM). M-Omi-Flag is similar to the M-Omi-GFP shown in FIG. 20, except that the GFP tag was replaced with a Flag tag.
as §1

[3] = test system: MCF-7 cells; test: Apoptosis of MCF-7 cells transfected with cytosolic Omi-GFP fusion proteins; assay type: cell-based; conditions: zVAD-FMK 20 μM; MCF-7 cells transfected with M-Omi-GFP
Experimental: FIG. 20 provides schematic diagrams of the Omi-GFP and GFP-IETD-Omi constructs used to assay the ability of Omi to induce apoptosis or to enhance apoptosis by other stimuli.
FIG. 21 is a bar graphic representation of the percentages of GFP-positive apoptotic MCF-7 cells 36 hours following transfection with M-Omi-S/A-GFP or pEGFP-N1 alone or M-Omi-GFP together with empty vector or expression construct encoding XIAP, XIAP-BIR3, or caspase-9DN. The cells were also transfected with M-Omi-GFP expression construct in the presence of zVAD-FMK (20 μM).

[4] = test system: Hela cells; test: Immunofluorescence confocal microscopy of Omi in Hela cells; assay type: cell-based, human; conditions: staurosporine 1 μM, 5 hours; untreated cells mostly punctate and perinuclear
[5] = test system: Jurkat and HL-60 cells; test: Release of Omi, Smac and cytochrome c to the cytosol and procaspase-3 processing (immunoblot of cytosolic extracts); assay type: cell-based, human; conditions: staurosporine 2 μM
Experimental: FIG. 13 is a scanned image of a blot representing cytosolic extracts from human Jurkat and HL-60 cells bound to GST-BIR3 and immunoblotted with Omi (top panels), Smac (second panels), Cytochrome c (third panels), or caspase-3 (lower panels) antibodies.
FIG. 14 is a scanned image of a blot representing cytosolic extracts of Jurkat cells treated with TRAIL (1 μg/ml) for the indicated time periods and analyzed by immunoblotting with Omi (top panel), Smac (middle panel), or cytochrome c (bottom panel) antibodies.
To determine whether Omi is released together with Smac and cytochrome c from the mitochondria to the cytoplasm during apoptosis, we treated Jurkat and HL-60 cells with staurosporine (2 μM), which is known to induce the mitochondrial apoptotic pathway, and analyzed their cytosolic extracts by immunoblot analysis. […] Processing of procaspase-3 also followed a similar time course with maximum processing observed at 6-8 hours after treatment. Very little or no Omi or Smac proteins or processing of procaspase-3 were detected in the extracts at zero-time points.

mature Omi-S/A: mature Omi-S/A released in the cytosol by caspase-dependent cleavage of GFP-IETD-AVP at the IETD site
binding to XIAP-BIR3 (GST-BIR3) [1]: able to bind the GST-BIR3 fusion protein

COC(=O)C[C@H](NC(=O)[C@H](C)NC(=O)[C@@H](NC(=O)OCc1ccccc1)C(C)C)C(=O)CF [zVAD-FMK, reference compound] (Cbz-Val-Ala-Asp(OMe)-CH2F)
processing at the IETD site [2]: very little or no processing at the IETD site was observed
block of M-Omi-GFP-induced apoptosis [3]: did not block the ability of M-Omi-GFP to induce apoptosis

CN[C@@H]1C[C@H]2O[C@@](C)([C@@H]1OC)n1c3ccccc3c3c4c(c5c6ccccc6n2c5c31)C(=O)NC4 [staurosporine]
immunofluorescence staining pattern of Omi [4]: showed diffused immunofluorescence staining of Omi
accumulation of cytochrome c, Smac and Omi in the cytosol [5]: accumulated in the cytosol of these cells in a time dependent manner
time of maximum processing of procaspase-3 after treatment [5]: 6 to 8 h
